Experimental data published in patent publication US10052320B2, “Substituted quinoxalines as FGFR kinase inhibitors” (ASTEX THERAPEUTICS LIMITED, priority 2011, dated 2018).

Columns and labels:
[1] = tested on: Ba/F3-KDR-transfected cells in the presence of 10 ng/ml murine IL3; assay: Ba/F3-KDR (plus IL3) cellular proliferation counterscreen, Alamar Blue; type: cell-based; conditions: plus 10 ng/ml murine IL3; for IC50: Mus musculus, read-out: BAF3-KDR (PLUS IL3) 384 well pIC50 (converted)
Protocol: Ba/F3-KDR (Minus IL3 or Plus IL3) (Cellular Proliferation Assay)
[…] Cells were put in an incubator at 37° C. and 5% CO2. After 24 hours, 10 μl of Alamar Blue solution (0.5 mM K3Fe(CN)6, 0.5 mM KaFe(CN)6, 0.15 mM Resazurin and 100 mM Phosphate Buffer) was added to the wells, incubated for 4 hours at 37° C. and 5% CO2 before RFU's (Relative Fluorescence Units) (ex. 540 nm., em. 590 nm.) were measured in a flurorescence plate reader.
As a counterscreen the same experiment was performed in the presence of 10 ng/ml murine IL3.
In a 96 well plate, 180 μl cell culture medium (phenol red free RPMI-1640, 10% FBS, 2 mM L-Glutamine and 50 μg/ml Gentamycin) containing 10000 cells per well of Ba/F3-KDR-transfected cells were pipette and 20 μl of compound dilution in DMSO was added. Cells were put in an incubator at 37° C. and 5% CO2. After 24 hours, 40 μl of Alamar Blue solution (0.5 mM K3Fe(CN)6, 0.5 mM KaFe(CN)6, 0.15 mM Resazurin and 100 mM Phosphate Buffer) was added to the wells, incubated for 4 hours at 37° C. and 5% CO2 RFU's (Relative Fluorescence Units) (ex. 540 nm., em. 590 nm.) were measured in a flurorescence plate reader.

[2] = tested on: Ba/F3-FGFR3-transfected cells in the presence of 10 ng/ml murine IL3; assay: Ba/F3-FGFR3 (plus IL3) cellular proliferation counterscreen, Alamar Blue; type: cell-based; conditions: plus 10 ng/ml murine IL3, 384 well; for IC50: Mus musculus, read-out: BAF3-FGFR 3 (PLUS IL3) 384 well pIC50 (converted)
In short: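 Counterscreen adds 10 ng/ml murine IL3, otherwise matching the IL3-free run. In both, FGFR3-transfected Ba/F3 cells (20000 or 10000 per well) incubate with compound for 24 h at 37° C. and 5% CO2; viability is read as resazurin fluorescence (540/590 nm) after 4 h with Alamar Blue.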

FGFR3 (h) = FGFR3 (h) (Homo sapiens, UniProt P22607); assay: FGFR3 (enzymatic assay), TR-FRET; type: biochemical; conditions: read-out: FGFR 3 pIC50 (converted)
Sequence of FGFR3 (h) (P22607 23-806): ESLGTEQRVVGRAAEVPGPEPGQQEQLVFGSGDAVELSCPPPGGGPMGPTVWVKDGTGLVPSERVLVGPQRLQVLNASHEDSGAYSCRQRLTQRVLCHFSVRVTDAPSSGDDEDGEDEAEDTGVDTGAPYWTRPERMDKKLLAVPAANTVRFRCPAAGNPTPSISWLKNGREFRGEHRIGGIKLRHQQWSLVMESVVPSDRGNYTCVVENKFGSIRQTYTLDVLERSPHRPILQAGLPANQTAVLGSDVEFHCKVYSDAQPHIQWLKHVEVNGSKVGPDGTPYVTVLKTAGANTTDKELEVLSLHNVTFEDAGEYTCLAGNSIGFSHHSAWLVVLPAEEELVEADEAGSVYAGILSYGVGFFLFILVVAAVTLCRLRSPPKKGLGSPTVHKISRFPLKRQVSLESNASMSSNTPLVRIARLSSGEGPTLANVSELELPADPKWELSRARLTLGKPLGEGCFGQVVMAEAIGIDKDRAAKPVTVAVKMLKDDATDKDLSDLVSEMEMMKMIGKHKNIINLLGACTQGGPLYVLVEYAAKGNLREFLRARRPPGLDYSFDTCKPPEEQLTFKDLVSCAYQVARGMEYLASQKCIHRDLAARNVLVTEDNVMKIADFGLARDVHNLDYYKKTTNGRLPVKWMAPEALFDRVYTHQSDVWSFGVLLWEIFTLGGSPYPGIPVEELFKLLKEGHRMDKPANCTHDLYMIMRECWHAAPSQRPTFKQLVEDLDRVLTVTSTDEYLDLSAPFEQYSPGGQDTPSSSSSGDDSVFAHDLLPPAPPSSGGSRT
Protocol: (§1) In a final reaction volume of 30 μL, FGFR3 (h) (40 ng/ml) was incubated with 50 mM HEPES pH 7.5, 6 mM MnCl2, 1 mM DTT, 0.1 mM Na3VO4, 0.01% Triton-X-100, 500 nM Btn-Flt3 and 25 μM ATP in the presence of compound (1% DMSO final). […] Time-Resolved Fluorescence Resonance Energy Transfer (TR-FRET) signal (ex340 nm. Em 620 nm, em 655 nm) was measured afterwards and results are expressed in RFU (Relative Fluorescence Units).

[3] = molecular target: Ba/F3-FGFR1-transfected cells (Homo sapiens, UniProt P11362); assay: Ba/F3-FGFR1 (minus IL3) cellular proliferation assay, Alamar Blue; type: cell-based; conditions: minus IL3, 384 well
Sequence of Ba/F3-FGFR1-transfected cells (P11362 whole entry, change not shown): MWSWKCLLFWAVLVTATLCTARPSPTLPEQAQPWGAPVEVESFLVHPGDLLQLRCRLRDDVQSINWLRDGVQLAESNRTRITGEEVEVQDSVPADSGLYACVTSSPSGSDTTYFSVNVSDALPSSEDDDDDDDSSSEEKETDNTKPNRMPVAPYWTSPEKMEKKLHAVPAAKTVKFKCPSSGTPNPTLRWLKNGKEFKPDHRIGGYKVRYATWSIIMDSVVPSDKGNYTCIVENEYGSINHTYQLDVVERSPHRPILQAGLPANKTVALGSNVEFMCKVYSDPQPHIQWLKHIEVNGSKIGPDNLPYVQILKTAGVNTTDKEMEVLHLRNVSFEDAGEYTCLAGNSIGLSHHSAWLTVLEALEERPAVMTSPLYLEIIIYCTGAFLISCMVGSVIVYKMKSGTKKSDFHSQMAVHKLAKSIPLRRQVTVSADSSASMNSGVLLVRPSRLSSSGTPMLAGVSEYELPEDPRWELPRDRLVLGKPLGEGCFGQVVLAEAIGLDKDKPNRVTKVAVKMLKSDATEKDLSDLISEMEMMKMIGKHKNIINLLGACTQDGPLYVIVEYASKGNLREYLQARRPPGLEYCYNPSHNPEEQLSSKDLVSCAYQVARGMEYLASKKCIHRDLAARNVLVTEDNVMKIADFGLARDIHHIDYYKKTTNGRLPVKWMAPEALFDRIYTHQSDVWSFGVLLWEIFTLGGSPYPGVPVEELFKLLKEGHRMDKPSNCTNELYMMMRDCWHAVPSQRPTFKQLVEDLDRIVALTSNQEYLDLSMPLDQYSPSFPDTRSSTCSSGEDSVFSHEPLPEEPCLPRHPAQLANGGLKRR
In short: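 Compound-treated FGFR1-transfected Ba/F3 cells were cultured for 24 h (37 °C, 5% CO2) in RPMI-1640 with 10% FBS, with 10 ng/ml murine IL3 added for the counterscreen only. Viability was read as resazurin fluorescence (540/590 nm) after a further 4 h incubation with Alamar Blue.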

FGFR1 (h) = FGFR1 (h) (Homo sapiens, UniProt P11362); assay: FGFR1 (enzymatic assay), TR-FRET; type: biochemical; conditions: read-out: FGFR 1 pIC50 (converted)
Sequence of FGFR1 (h) (P11362 22-822): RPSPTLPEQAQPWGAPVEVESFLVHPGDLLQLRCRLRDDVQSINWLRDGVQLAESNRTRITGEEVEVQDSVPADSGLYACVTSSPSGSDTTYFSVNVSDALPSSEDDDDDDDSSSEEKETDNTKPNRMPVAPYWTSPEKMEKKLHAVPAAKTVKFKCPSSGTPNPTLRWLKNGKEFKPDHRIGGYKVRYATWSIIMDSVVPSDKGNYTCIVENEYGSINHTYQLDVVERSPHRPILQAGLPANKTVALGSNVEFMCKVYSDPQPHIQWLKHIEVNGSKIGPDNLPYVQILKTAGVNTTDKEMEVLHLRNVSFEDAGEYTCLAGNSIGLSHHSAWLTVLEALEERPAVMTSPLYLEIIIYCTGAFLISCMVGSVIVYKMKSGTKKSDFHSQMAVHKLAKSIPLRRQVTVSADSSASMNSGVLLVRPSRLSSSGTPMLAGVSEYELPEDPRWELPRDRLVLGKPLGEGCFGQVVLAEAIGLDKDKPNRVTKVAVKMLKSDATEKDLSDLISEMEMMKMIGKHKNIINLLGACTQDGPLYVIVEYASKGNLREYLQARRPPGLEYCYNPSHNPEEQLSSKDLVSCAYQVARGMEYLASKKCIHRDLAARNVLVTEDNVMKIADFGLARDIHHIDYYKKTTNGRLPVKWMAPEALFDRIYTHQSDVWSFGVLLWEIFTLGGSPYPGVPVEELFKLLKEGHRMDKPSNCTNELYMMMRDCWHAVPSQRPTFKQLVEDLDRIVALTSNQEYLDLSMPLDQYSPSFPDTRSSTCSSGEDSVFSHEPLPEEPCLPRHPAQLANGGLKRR
Protocol: as §1, with “FGFR1” for “FGFR3”, “(25” for “(40”, “5” for “25”

Compound | BAF3-KDR (PLUS IL3) 384 well pIC50 [1] | BAF3-FGFR 3 (PLUS IL3) 384 well pIC50 [2] | IC50 [1] | IC50 (FGFR3 (h)) | BAF3-FGFR 1 (MIN IL3) 384 well pIC50 [3] | IC50 (FGFR1 (h)) | IC50 [2]
COc1cc(OC)cc(N(CC(O)C(F)(F)F)c2ccc3ncc(-c4cccnc4)nc3c2)c1 (single isomer, unassigned) [Compound 54] | <5 | <5 | – | – | – | – | –
COc1cc(OC)cc(N(CC(OC(C)=O)C(F)(F)F)c2ccc3ncc(-c4cccnc4)nc3c2)c1 (single isomer, unassigned) [Compound 75] | <5 | <5 | – | – | – | – | –
COCCCN(c1cc(OC)cc(OC)c1)c1ccc2ncc(-c3ccn(C)c3)nc2c1 [Compound 3] | – | – | > 10000 nM | 10 nM | 5.91 | 7.76 nM | > 10000 nM
COCCN(c1cc(OC)cc(OC)c1)c1ccc2ncc(-c3ccn(C)c3)nc2c1 [Compound 6] | – | – | > 10000 nM | 6.92 nM | 5.84 | 4.37 nM | > 10000 nM
COc1cc(OC)cc(N(CCNC(C)C)c2ccc3ncc(-c4ccn(C)c4)nc3c2)c1 [Compound 8] | – | – | – | 2.34 nM | 8.13 | 0.457 nM | –
COc1cc(OC)cc(N(CCO)c2ccc3ncc(-c4cccnc4)nc3c2)c1 [Compound 9] | – | – | > 10000 nM | 4.68 nM | 6.25 | 10 nM | > 10000 nM
COc1cc(OC)cc(N(CCNC(C)C)c2ccc3ncc(-c4cccnc4)nc3c2)c1 [Compound 10] | – | – | – | 10.2 nM | 7.55 | 2.75 nM | –
COc1cc(OC)cc(N(CCO)c2ccc3ncc(-c4ccncc4)nc3c2)c1 [Compound 11] | – | – | > 10000 nM | 4.47 nM | 6.01 | 8.13 nM | > 10000 nM
COc1cc(OC)cc(N(CCNC(C)C)c2ccc3ncc(-c4ccncc4)nc3c2)c1 [Compound 12] | – | – | > 10000 nM | 4.47 nM | 7.27 | 2.14 nM | > 10000 nM
CNC(=O)c1cc(-c2cnc3ccc(N(CCNC(C)C)c4cc(OC)cc(OC)c4)cc3n2)ccn1 [Compound 14] | – | – | – | 9.55 nM | 6.61 | 6.17 nM | –
COc1cc(OC)cc(N(CCNC(C)C)c2ccc3ncc(-c4ccc(N)nc4)nc3c2)c1 [Compound 17] | – | – | – | 3.2 nM | 6.975 | 1.23 nM | –
CNC(=O)c1cc(-c2cnc3ccc(N(CCN4CCCC4=O)c4cc(OC)cc(OC)c4)cc3n2)ccn1 [Compound 25] | – | – | – | 282 nM | 5.05 | 468 nM | –
COc1cc(OC)cc(N(CCCO)c2ccc3ncc(-c4ccnc(C(=O)NCCCN)c4)nc3c2)c1 [Compound 33] | – | – | – | 19.1 nM | 5.1 | 12.6 nM | –
COc1cc(OC)cc(N(CCCO)c2ccc3ncc(-c4ccc(N5CCNCC5)nc4)nc3c2)c1 [Compound 48] | – | – | 5250 nM | 3.31 nM | 6.92 | 2.45 nM | 5500 nM
COc1cc(OC)cc(N(Cc2cccc(CN)n2)c2ccc3ncc(-c4ccc(N)nc4)nc3c2)c1 [Compound 51] | – | – | > 10000 nM | 11 nM | 5.88 | 3.72 nM | ~8130 nM
COc1cc(OC)cc(N(CCCO)c2ccc3ncc(-c4ccnc(N)c4)nc3c2)c1 [Compound 66] | – | – | – | 2.09 nM | 7.16 | 3.09 nM | –
COc1cc(OC)cc(N(CC(O)CO)c2ccc3ncc(-c4ccc(N)nc4)nc3c2)c1 (centres unmarked) [Compound 74] | – | – | > 10000 nM | 4.37 nM | 6.62 | 7.24 nM | > 10000 nM

Compound | BAF3-KDR (PLUS IL3) 384 well pIC50 [1] | BAF3-FGFR 3 (PLUS IL3) 384 well pIC50 [2] | IC50 [1] | IC50 (FGFR3 (h)) | BAF3-FGFR 1 (MIN IL3) 384 well pIC50 [3] | IC50 (FGFR1 (h)) | IC50 [2]
CNC(=O)OCCN(c1cc(OC)cc(OC)c1)c1ccc2ncc(-c3ccc(NC(=O)OC(C)(C)C)nc3)nc2c1 [Compound 80] | – | – | – | ~347 nM | 5.08 | 398 nM | –
CNCCN(c1cc(OC)cc(OC)c1)c1ccc2ncc(-c3ccc(NC(=O)OC(C)(C)C)nc3)nc2c1 [Compound 81] | – | – | – | 10 nM | 5.66 | 10.2 nM | –
COc1cc(OC)cc(N(CC2CC2)c2ccc3ncc(-c4ocnc4C)nc3c2)c1 [Compound 104] | – | – | > 10000 nM | 117 nM | <5 | 389 nM | > 10000 nM
COc1cc(OC)cc(N(CC2CC2)c2ccc3ncc(-n4cnc(CO)c4)nc3c2)c1 [Compound 105] | – | – | – | 13.8 nM | 5.32 | 28.2 nM | –
COc1cc(OC)cc(N(CCO)c2ccc3ncc(-c4ccc(N)nc4)nc3c2)c1 [Compound 106] | – | – | – | 3.02 nM | 6.455 | 5.43 nM | –
CNC(=O)c1cc(-c2cnc3ccc(N(CCN4CCCC4CO)c4cc(OC)cc(OC)c4)cc3n2)ccn1 (centres unmarked) [Compound 109] | – | – | – | 11.7 nM | 6.63 | 16.2 nM | –
COc1cc(OC)cc(N(CC2CO2)c2ccc3ncc(-c4ccc(N)nc4)nc3c2)c1 (centres unmarked) [Compound 110] | – | – | – | 21.4 nM | 6.25 | 27.5 nM | –
COc1cc(OC)cc(N(CCO)c2ccc3ncc(-c4ccc(OC)nc4)nc3c2)c1 [Compound 111] | – | – | > 10000 nM | 9.77 nM | 5.65 | 26.3 nM | > 10000 nM
COc1cc(OC)cc(N(CCCO)c2ccc3ncc(-c4cccnc4)nc3c2)c1 [Compound 112] | – | – | > 10000 nM | 7.41 nM | 6.11 | 18.6 nM | > 10000 nM
CNC(=O)c1cc(-c2cnc3ccc(N(CCNCC(F)(F)F)c4cc(OC)cc(OC)c4)cc3n2)ccn1 [Compound 113] | – | – | – | 33.9 nM | 5.44 | 85.1 nM | –
COc1cc(OC)cc(N(CCCO)c2ccc3ncc(-c4ccc(C)nc4)nc3c2)c1 [Compound 115] | – | – | – | 4.79 nM | 5.93 | 15.8 nM | –
COc1cc(OC)cc(N(CCO)c2ccc3ncc(-c4ccccc4)nc3c2)c1 [Compound 120] | – | – | – | 3.98 nM | 5.71 | 8.91 nM | –
COc1cc(OC)cc(N(CCNC(C)C)c2ccc3ncc(-c4ccccc4)nc3c2)c1 [Compound 121] | – | – | – | 5.89 nM | 6.45 | 1.17 nM | –
CNC(=O)c1cc(-c2cnc3ccc(N(CCCNCC(F)(F)F)c4cc(OC)cc(OC)c4)cc3n2)ccn1 [Compound 122] | – | – | – | 37.2 nM | 5.29 | 83.2 nM | –
COc1cc(OC)cc(N(CCCO)c2ccc3ncc(-c4ccc(N(C)C(=O)OC(C)(C)C)nc4)nc3c2)c1 [Compound 125] | – | – | – | 81.3 nM | 5.37 | 34.7 nM | –
COc1cc(OC)cc(N(CCCO)c2ccc3ncc(-c4ccnc(C(=O)NCCCCN)c4)nc3c2)c1 [Compound 126] | – | – | – | 17.8 nM | 5.31 | 19.5 nM | –
